Reference: paper PMC6979384, “Characterization of the plant homeodomain (PHD) reader family for their histone tail interactions” (Epigenetics & Chromatin, 2020)
Blank lines part the entries; values can stand above or below the substance they belong to.

Legend:
Assay in all cases: Histone peptide microarray
Type in all cases: binding, human
Settings in all cases: arrays performed twice, n of 4
DIDO1 = test system: DIDO1
Outline: (§1)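 Histone peptide library (293 synthetic peptides, single/combinatorial PTMs) arrayed and probed with 0.5 μM purified GST-PHD domain; optimized protocol; quadruplicate mean and SD reported.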

MORC3 (CW) = test system: MORC3 (CW)
Outline: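 GST-tagged PHD finger readers were expressed, purified and applied at 0.5 μM to a microarray of 293 synthetic histone peptides carrying single or combinatorial PTMs, using an optimized protocol. Binding signals are averages with standard deviation from 4 replicates.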

ING4 = test system: ING4
Outline: as §1

KDM7A = test system: KDM7A
Outline: as §1

KDM5A (3) = test system: KDM5A (3)
Outline: as §1

PHF23 = test system: PHF23
Outline: as §1

KDM5A (1) = test system: KDM5A (1)
Outline: as §1

RAG2 = test system: RAG2
Outline: as §1

TAF3 = test system: TAF3
Outline: as §1

CHD4 (PPCC) = test system: CHD4 (PPCC)
Outline: as §1

AIRE (PP) = test system: AIRE (PP)
Outline: as §1

CHD5 (PPCC) = test system: CHD5 (PPCC)
Outline: as §1

KDM5B (3) = test system: KDM5B (3)
Outline: as §1

ING3 = test system: ING3
Outline: as §1

PHF2 = test system: PHF2
Outline: as §1

BAZ2B = test system: BAZ2B
Outline: as §1

SP140L = test system: SP140L
Outline: as §1

TRIM66 (PB) = test system: TRIM66 (PB)
Outline: as §1

BPTF (PB) = test system: BPTF (PB)
Outline: as §1

KDM5B (1) = test system: KDM5B (1)
Outline: as §1

CHD5 (PCC) = test system: CHD5 (PCC)
Outline: as §1

KDM4C (TTP) = test system: KDM4C (TTP)
Outline: as §1

ING1 = test system: ING1
Outline: as §1

PHF13 = test system: PHF13
Outline: as §1

DPF2 (PPC2W2) = test system: DPF2 (PPC2W2)
Outline: as §1

ING5 = test system: ING5
Outline: as §1

PHF8 = test system: PHF8
Outline: as §1

MLL5 = test system: MLL5
Outline: as §1

ING2 = test system: ING2
Outline: as §1

PHRF1 (RP) = test system: PHRF1 (RP)
Outline: as §1

PHF21A = test system: PHF21A
Outline: as §1

Array Heatmap value (peptide array binding signal) (DIDO1; DIDO1, GST-tagged): 0.5926
Array Heatmap value (peptide array binding signal) (MORC3 (CW); MORC3 (CW), GST-tagged): 0.3108
Array Heatmap value (peptide array binding signal) (ING4; ING4, GST-tagged): 0.3966
Array Heatmap value (peptide array binding signal) (KDM7A; KDM7A, GST-tagged): 0.3181
Array Heatmap value (peptide array binding signal) (KDM5A (3); KDM5A (3), GST-tagged): 0.3829
Array Heatmap value (peptide array binding signal) (PHF23; PHF23, GST-tagged): 0.4625
Array Heatmap value (peptide array binding signal) (KDM5A (1); KDM5A (1), GST-tagged): 0.422
Array Heatmap value (peptide array binding signal) (RAG2; RAG2, GST-tagged): 0.2054
Array Heatmap value (peptide array binding signal) (TAF3; TAF3, GST-tagged): 0.2241
Array Heatmap value (peptide array binding signal) (CHD4 (PPCC); CHD4 (PPCC), GST-tagged): 0.5004
Array Heatmap value (peptide array binding signal) (AIRE (PP); AIRE (PP), GST-tagged): 0.395
Array Heatmap value (peptide array binding signal) (CHD5 (PPCC); CHD5 (PPCC), GST-tagged): 0.4582
Array Heatmap value (peptide array binding signal) (KDM5B (3); KDM5B (3), GST-tagged): 0.3806
Array Heatmap value (peptide array binding signal) (ING3; ING3, GST-tagged): 0.3958
Array Heatmap value (peptide array binding signal) (PHF2; PHF2, GST-tagged): 0.4036
Array Heatmap value (peptide array binding signal) (BAZ2B; BAZ2B, GST-tagged): 0.3935
Array Heatmap value (peptide array binding signal) (SP140L; SP140L, GST-tagged): 0.3238
Array Heatmap value (peptide array binding signal) (TRIM66 (PB); TRIM66 (PB), GST-tagged): 0.5169
Array Heatmap value (peptide array binding signal) (BPTF (PB); BPTF (PB), GST-tagged): 0.3001
Array Heatmap value (peptide array binding signal) (KDM5B (1); KDM5B (1), GST-tagged): 0.6354
Array Heatmap value (peptide array binding signal) (CHD5 (PCC); CHD5 (PCC), GST-tagged): 0.7445
Array Heatmap value (peptide array binding signal) (KDM4C (TTP); KDM4C (TTP), GST-tagged): 0.4185
Array Heatmap value (peptide array binding signal) (ING1; ING1, GST-tagged): 0.4725
Array Heatmap value (peptide array binding signal) (PHF13; PHF13, GST-tagged): 0.5223
Array Heatmap value (peptide array binding signal) (DPF2 (PPC2W2); DPF2 (PPC2W2), GST-tagged): 0.6617
Array Heatmap value (peptide array binding signal) (ING5; ING5, GST-tagged): 0.2888
Array Heatmap value (peptide array binding signal) (PHF8; PHF8, GST-tagged): 0.3097
Array Heatmap value (peptide array binding signal) (MLL5; MLL5, GST-tagged): 0.4918
Array Heatmap value (peptide array binding signal) (ING2; ING2, GST-tagged): 0.5895
Array Heatmap value (peptide array binding signal) (PHRF1 (RP); PHRF1 (RP), GST-tagged): 0.3839
Array Heatmap value (peptide array binding signal) (PHF21A; PHF21A, GST-tagged): 0.4184
Substance: H3K36me1 (21-44): H3 21-44

Substance: H4S1p + R3me2s: H4 1-23
Array Heatmap signal, DIDO1 (DIDO1; GST-tagged DIDO1, histone peptide array): 0.7409
Array Heatmap signal, MORC3 (CW) (MORC3 (CW); GST-tagged MORC3 (CW = CW-type Zn-finger), histone peptide array): 0.5092
Array Heatmap signal, ING4 (ING4; GST-tagged ING4, histone peptide array): 0.5288
Array Heatmap signal, KDM7A (KDM7A; GST-tagged KDM7A, histone peptide array): 0.5358
Array Heatmap signal, KDM5A (3) (KDM5A (3); GST-tagged KDM5A (3), histone peptide array): 0.5274
Array Heatmap signal, PHF23 (PHF23; GST-tagged PHF23, histone peptide array): 0.5739
Array Heatmap signal, KDM5A (1) (KDM5A (1); GST-tagged KDM5A (1), histone peptide array): 0.508
Array Heatmap signal, RAG2 (RAG2; GST-tagged RAG2, histone peptide array): 0.4186
Array Heatmap signal, TAF3 (TAF3; GST-tagged TAF3, histone peptide array): 0.439
Array Heatmap signal, CHD4 (PPCC) (CHD4 (PPCC); GST-tagged CHD4 (PPCC = Dual PHD + Dual Chromodomain), histone peptide array): 0.6243
Array Heatmap signal, AIRE (PP) (AIRE (PP); GST-tagged AIRE (PP), histone peptide array): 0.5797
Array Heatmap signal, CHD5 (PPCC) (CHD5 (PPCC); GST-tagged CHD5 (PPCC = Dual PHD + Dual Chromodomain), histone peptide array): 0.6121
Array Heatmap signal, KDM5B (3) (KDM5B (3); GST-tagged KDM5B (3), histone peptide array): 0.6247
Array Heatmap signal, ING3 (ING3; GST-tagged ING3, histone peptide array): 0.5221
Array Heatmap signal, PHF2 (PHF2; GST-tagged PHF2, histone peptide array): 0.514
Array Heatmap signal, BAZ2B (BAZ2B; GST-tagged BAZ2B, histone peptide array): 0.546
Array Heatmap signal, SP140L (SP140L; GST-tagged SP140L, histone peptide array): 0.3935
Array Heatmap signal, TRIM66 (PB) (TRIM66 (PB); GST-tagged TRIM66 (PB = PHD + Bromodomain), histone peptide array): 0.8775
Array Heatmap signal, BPTF (PB) (BPTF (PB); GST-tagged BPTF (PB = PHD + Bromodomain), histone peptide array): 0.4125
Array Heatmap signal, KDM5B (1) (KDM5B (1); GST-tagged KDM5B (1), histone peptide array): 0.7342
Array Heatmap signal, CHD5 (PCC) (CHD5 (PCC); GST-tagged CHD5 (PCC = PHD + Dual Chromodomain), histone peptide array): 0.9435
Array Heatmap signal, KDM4C (TTP) (KDM4C (TTP); GST-tagged KDM4C (TTP = Tandem Tudor domain + PHD), histone peptide array): 0.5709
Array Heatmap signal, ING1 (ING1; GST-tagged ING1, histone peptide array): 0.5472
Array Heatmap signal, PHF13 (PHF13; GST-tagged PHF13, histone peptide array): 0.6986
Array Heatmap signal, DPF2 (PPC2W2) (DPF2 (PPC2W2); GST-tagged DPF2 (PPC2W2 = Dual PHD + C2W2-type Zn-finger), histone peptide array): 0.7264
Array Heatmap signal, ING5 (ING5; GST-tagged ING5, histone peptide array): 0.4164
Array Heatmap signal, PHF8 (PHF8; GST-tagged PHF8, histone peptide array): 0.4081
Array Heatmap signal, MLL5 (MLL5; GST-tagged MLL5, histone peptide array): 0.6789
Array Heatmap signal, ING2 (ING2; GST-tagged ING2, histone peptide array): 0.6427
Array Heatmap signal, PHRF1 (RP) (PHRF1 (RP); GST-tagged PHRF1 (RP), histone peptide array): 0.4781
Array Heatmap signal, PHF21A (PHF21A; GST-tagged PHF21A, histone peptide array): 0.5145
